Data from patent publication US20260256716A1, “COMPOSITIONS AND METHODS OF USE THEREOF” (Board of Supervisors of Louisiana State University and …, priority 2023, published 2026).

Key:
[1] = tested on: A549 cells; experiment: Cell viability after cumene peroxide oxidative stress (Hoechst / propidium iodide); assay type: cell-based
Description: A549 cells were treated with the indicated concentrations of R-DOI (panel A) or 2C-iBu (panel B) and subsequently exposed to cumene peroxide to oxidatively stress cells. Cell viability was visualized by staining with Hoescht (Blue) to mark total cells (live plus dead) and propidium iodide (red) to mark dead cells.

[2] = tested on: ARPE cells; experiment: Mitochondrial function and ATP production by Seahorse in ARPE cells; assay type: cell-based, human; conditions: 10 fold dilutions 100 nM to 0.001 nM; 48 hours
Description: Representative 5-HT2A Receptor Agonist, R-DOI Increases Mitochondrial Function And ATP Production at low nM and sub nanomolar concentrations thereby reversing adverse processes that underlie development and progression of the Pathophysiology of Age-Associated Ocular and Neurodegenerative Diseases. ARPE cells were plated and treated with 10 fold dilutions of R-DOI from 100 nM to 0.001 nM. 48 hours post treatment, mitochondrial function and ATP production was assessed by Seashorse.

[3] = tested on: ARPE-19 cells; experiment: ARPE-19 proliferation (DAPI cell number, fold change in growth); assay type: cell-based, human; conditions: ARPE-19, 72 h, R-DOI 0.1 nM or 1 nM
Description: Specific 5-HT2A Receptor Activation via Model Phenethylamines, like R-DOI. […] ARPE-19 cells were plated in nutrient rich media, DMEM, containing 7% dialyzed FCS and then starved in DMEM media containing 0.5% dialyzed FCS. Cells were then changed to 7% dialyzed FCS DMEM media containing physiolocial relevant levels of serotonin at varying concentrations and grown for 72-hours. Cell numbers were determined through DNA staining with DAPI and fold change in growth was determined from baseline readings at 24-hours. To assess if agonists of the 5HT2A receptor could enhance cell health and proliferation specifically through the 5-HT2A receptor, the model 5-HT2A receptor agonist, R-DOI was added at either 0.1 nM or 1 nM. […] Also, included is a summary of physiological serotonin and 5-HT2A receptor agonist/antagonist outcomes on cellular proliferation. This increase in proliferation promotes the formation of a compact RPE-monolayer which is important for maintaining a healthy blood-retinal barrier and can occur with low dose administration of 5-HT2A receptor agonists.
ARPE-19 cells were plated in nutrient rich media, DMEM, containing 7% dialyzed FCS and then starved in DMEM media containing 0.5% dialyzed FCS. Cells were then changed to 7% dialyzed FCS DMEM media containing physiological relevant levels of serotonin at varying concentrations and grown for 72-hours. Cell numbers were determined through DNA staining with DAPI and fold change in growth was determined from baseline readings at 24-hours. To assess if serotonin enhances cell health and proliferation specifically through the 5-HT2A receptor, the 5-HT2A receptor antagonist, M100,907 at 10 nM was included during serotonin induction.

[4] = tested on: ARPE cells; experiment: Mitochondrial morphology by fluorescent microscopy in ARPE cells expressing mitochondrial red/green fluorescent protein; assay type: cell-based, human; conditions: 100 nM, 50 nM or 10 nM; 48 hours post treatment
Description: Representative 5-HT2A Receptor Agonist, R-DOI, Increases Mitochondrial Biogenesis and Quality by Inducing Mitochondrial Fusion at low nM concentrations thereby reversing adverse processes that underlie development and progression of the Pathophysiology of Age-Associated Ocular and Neurodegenerative Diseases. ARPE cells transfected with plasmids that express either a red or green fluorescent protein biomarker that marks mitochondria were plated and treated with R-DOI @100 nM, 50 nM or 10 nM. 48 hours post treatment, mitochondrial morphology was evaluated by fluorescent microscopy.
• Fluorescent dyes limit researchers to study in a static manor due to fixation. We engineered a plasmid expressing mitochondrial localized AcGFP1/dsRed2. […]

Compound: COc1cc(C[C@@H](C)N)c(OC)cc1I (single isomer, unassigned) [R-DOI, R enantiomer 2,5-Dimethoxy-4-iodoamphetamine]
- oxidative stress-induced cell death [1]: protected cells from oxidative stress-induced cell death
- ATP production and mitochondrial respiration [2]: increased ATP production and mitochondrial respiration
- proliferation of RPE (fold change in growth) [3]: Stimulate and Restore Healthy Proliferation of RPE
- mitochondrial biomass and morphology [4]: increased mitochondrial biomass with a non-fragmented fused morphology
